# Measurements as given in patent US9980943B2, “Methods of treating muscular dystrophy” (BOARD OF REGENTS OF THE NEVADA SYSTEM OF HIGHER EDUCATION, …, priority 2013, dated 2018).
# Experiments:
# Format in all cases: cell-based, mouse
# [1] = test system: α7 integrin (LacZ reporter in α7+/LacZ myotubes); experiment: Myotube α7 integrin FDG assay (Burkin assay in myotubes, 96-well); conditions: myotubes
# [2] = test system: α7 integrin (LacZ reporter in α7βgal+/− myoblasts); experiment: Myoblast α7+/LacZ integrin FDG assay (Burkin assay in myoblasts, 96-well); conditions: α7+/LacZ myoblasts, 96-well
# [3] = test system: β-galactosidase in CMV-LacZ C2C12 myotubes; experiment: CMV-LacZ secondary screen in C2C12 myotubes (β-Gal stabilizing assay); conditions: for CMV-LACZ in Myotubes (β-galactosidase activity relative to DMSO): CMV-LacZ C2C12 myotubes, 96-well format
# Summary of the method: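 β-Gal level was the read-out, measured in a clonal C2C12 line expressing LacZ from a CMV promoter. Dose-response curves used six concentrations, 0.5 μM up to 40 μM, with duplicate points.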
# [4] = 5 uM, C2C12 CMV-LacZ myotubes, fold relative to DMSO
# [5] = 10 uM, C2C12 CMV-LacZ myotubes, fold relative to DMSO
# [6] = 20 uM, C2C12 CMV-LacZ myotubes, fold relative to DMSO
# [7] = 40 uM, C2C12 CMV-LacZ myotubes, fold relative to DMSO
SMILES,Burkin Assay in Myotubes (signal relative to DMSO) ([1]; 0.5 uM),Burkin Assay in Myotubes (signal relative to DMSO) ([1]; 1 uM),Burkin Assay in Myotubes (signal relative to DMSO) ([1]; 5 uM),Burkin Assay in Myotubes (signal relative to DMSO) ([1]; 10 uM),Burkin Assay in Myotubes (signal relative to DMSO) ([1]; 20 uM),Burkin Assay in Myotubes (signal relative to DMSO) ([1]; 40 uM),"Burkin Assay in Myoblasts, value relative to DMSO ([2]; 0.5 uM)","Burkin Assay in Myoblasts, value relative to DMSO ([2]; 1 uM)","Burkin Assay in Myoblasts, value relative to DMSO ([2]; 5 uM)","Burkin Assay in Myoblasts, value relative to DMSO ([2]; 10 uM)","Burkin Assay in Myoblasts, value relative to DMSO ([2]; 20 uM)","Burkin Assay in Myoblasts, value relative to DMSO ([2]; 40 uM)",CMV-LACZ in Myotubes (β-galactosidase activity relative to DMSO) ([3]; 5 uM),CMV-LACZ in Myotubes (β-galactosidase activity relative to DMSO) ([3]; 10 uM),CMV-LACZ in Myotubes (β-galactosidase activity relative to DMSO) ([3]; 20 uM),CMV-LACZ in Myotubes (β-galactosidase activity relative to DMSO) ([3]; 40 uM),also measured
CCCCN(CCCC)CCNC(=O)c1cn(C)c2ccc(S(=O)(=O)N(C)C3CCCCC3)cc2c1=O [MLS000913117-01],,,,,,,,,,,,,,,,,"Burkin Assay in Myotubes, α7 integrin LacZ reporter signal relative to DMSO ([1]; 0.5 uM): 1.09; Burkin Assay in Myotubes, α7 integrin LacZ reporter signal relative to DMSO ([1]; 1 uM): 1.208; Burkin Assay in Myotubes, α7 integrin LacZ reporter signal relative to DMSO ([1]; 5 uM): 0.9655; Burkin Assay in Myotubes, α7 integrin LacZ reporter signal relative to DMSO ([1]; 10 uM): 0.6623; Burkin Assay in Myotubes, α7 integrin LacZ reporter signal relative to DMSO ([1]; 20 uM): 0.495; Burkin Assay in Myotubes, α7 integrin LacZ reporter signal relative to DMSO ([1]; 40 uM): 0.3911; Burkin Assay in Myoblasts, signal relative to DMSO ([2]; 0.5 uM): 0.9085; Burkin Assay in Myoblasts, signal relative to DMSO ([2]; 1 uM): 0.9155; Burkin Assay in Myoblasts, signal relative to DMSO ([2]; 5 uM): 0.9138; Burkin Assay in Myoblasts, signal relative to DMSO ([2]; 10 uM): 0.6729; Burkin Assay in Myoblasts, signal relative to DMSO ([2]; 20 uM): 0.1952; Burkin Assay in Myoblasts, signal relative to DMSO ([2]; 40 uM): 0.05713; CMV-LACZ in Myotubes, signal relative to DMSO [3, 4]: 0.8036; CMV-LACZ in Myotubes, signal relative to DMSO [3, 5]: 0.8262; CMV-LACZ in Myotubes, signal relative to DMSO [3, 6]: 0.5938; CMV-LACZ in Myotubes, signal relative to DMSO [3, 7]: 0.6538"
Cc1ccccc1C(=O)Nc1scc(-c2ccc(Br)cc2)c1C(=O)O [MLS001179267-01],0.947,0.8787,0.8908,0.559,0.8589,0.5111,0.983,1.031,0.9797,0.9902,0.9305,0.95,,,,,"CMV-LACZ in Myotubes, signal relative to DMSO [3, 4]: 0.9091; CMV-LACZ in Myotubes, signal relative to DMSO [3, 5]: 0.8244; CMV-LACZ in Myotubes, signal relative to DMSO [3, 6]: 0.6141; CMV-LACZ in Myotubes, signal relative to DMSO [3, 7]: 0.5554"
CNc1nnc(SCC(=O)c2cc(C)n(C3CC3)c2C)s1 [MLS002156485-01],1.0551,0.9807,1.2005,1.0687,1.057,1.156,1.059,0.9382,0.9278,0.8752,1.052,1.026,0.9468,0.9523,1.115,0.9483,
CC(=O)Nc1ccc(NC(=O)[C@@H](NC(=O)c2cccc(C)c2)C(C)C)cc1 [MLS001176897-01],0.9577,1.073,1.022,1.194,1.145,1.163,0.9342,0.9456,0.9058,0.9978,0.9458,0.9475,1.009,0.797,1.121,1.046,
CCOc1cc(/C=C2\C(=O)ON=C2c2ccccc2)ccc1OC [MLS001196946-01],0.9942,1.113,1.002,0.9469,0.5465,0.2832,0.9541,0.9798,0.7989,0.6188,0.1194,0.08385,0.9817,1.13,2.7886,3.9614,
COc1cccc(NC(=O)c2ccc3c(c2)CCCC3)c1 [MLS000879190-01],,,,,,,,,,,,,,,,,"fold induction at 0.5 µM ([1]; Mus musculus, Myotube, 0.5 uM, read-out: Burkin Assay in Myotubes (signal relative to DMSO)): 0.965; fold induction at 1 µM ([1]; Mus musculus, Myotube, 1 uM, read-out: Burkin Assay in Myotubes (signal relative to DMSO)): 1.13; fold induction at 5 µM ([1]; Mus musculus, Myotube, 5 uM, read-out: Burkin Assay in Myotubes (signal relative to DMSO)): 1.05; fold induction at 10 µM ([1]; Mus musculus, Myotube, 10 uM, read-out: Burkin Assay in Myotubes (signal relative to DMSO)): 0.913; fold induction at 20 µM ([1]; Mus musculus, Myotube, 20 uM, read-out: Burkin Assay in Myotubes (signal relative to DMSO)): 1.08; fold induction at 40 µM ([1]; Mus musculus, Myotube, 40 uM, read-out: Burkin Assay in Myotubes (signal relative to DMSO)): 0.849; fold induction at 0.5 µM ([2]; Mus musculus, Myoblast, 48 h, 0.5 uM, read-out: Burkin Assay in Myoblasts, value relative to DMSO): 1.1; fold induction at 1 µM ([2]; Mus musculus, Myoblast, 48 h, 1 uM, read-out: Burkin Assay in Myoblasts, value relative to DMSO): 1.34; fold induction at 5 µM ([2]; Mus musculus, Myoblast, 48 h, 5 uM, read-out: Burkin Assay in Myoblasts, value relative to DMSO): 1.19; fold induction at 10 µM ([2]; Mus musculus, Myoblast, 48 h, 10 uM, read-out: Burkin Assay in Myoblasts, value relative to DMSO): 1.38; fold induction at 20 µM ([2]; Mus musculus, Myoblast, 48 h, 20 uM, read-out: Burkin Assay in Myoblasts, value relative to DMSO): 1.09; fold induction at 40 µM ([2]; Mus musculus, Myoblast, 48 h, 40 uM, read-out: Burkin Assay in Myoblasts, value relative to DMSO): 1.13; fold induction at 5 µM ([3]; Mus musculus, C2C12, read-out: CMV-LACZ in Myotubes, signal relative to DMSO, 5 uM, C2C12 CMV-LacZ myotubes, fold relative to DMSO): 0.991; fold induction at 10 µM ([3]; Mus musculus, C2C12, read-out: CMV-LACZ in Myotubes, signal relative to DMSO, 10 uM, C2C12 CMV-LacZ myotubes, fold relative to DMSO): 1.05; fold induction at 20 µM ([3]; Mus musculus, C2C12, read-out: CMV-LACZ in Myotubes, signal relative to DMSO, 20 uM, C2C12 CMV-LacZ myotubes, fold relative to DMSO): 0.85; fold induction at 40 µM ([3]; Mus musculus, C2C12, read-out: CMV-LACZ in Myotubes, signal relative to DMSO, 40 uM, C2C12 CMV-LacZ myotubes, fold relative to DMSO): 0.463"
Cc1cc(NC(=O)CCC(=O)N(Cc2cccnc2)C(C(=O)NC(C)(C)C)c2ccccc2Cl)no1 (stereo not shown) [MLS001220803-01],0.9345,0.9703,1.18,1.075,1.0147,0.9622,0.9688,1.0343,0.8878,0.9511,0.9503,0.9906,1.115,1.064,1.091,1.05,
